Data published in paper PMC8222254, “Self-assembly of an anion receptor with metal-dependent kinase inhibition and potent in vitro anti-cancer properties” (Nature Communications, 2021).

What was measured:
Test in all cases: Kinase inhibition screen, cell-free 33P ATP assay at 10 μM
Type in all cases: biochemical
[1] = target: 140 purified human kinases (Homo sapiens, UniProt Q96GD4); settings: Aurora B
Method: (§1) [L2Cu3]^6+ and [L2Zn3]^6+ were submitted to the MRC Protein Phosphorylation and Ubiquitination Unit International Centre for Kinase Profiling (University of Dundee) and tested in duplicate (at 10 μM) against a series of 140 purified human kinases in a cell-free kinase assay using ^33P ATP[55],[56]. The kinase gene IDs from the screen were then translated into common IDs (HGNC symbol) using biomaRt package[57],[58] in R[59] and R Studio[60] and used as input to the KinMap programme.

[2] = target: 140 purified human kinases (Homo sapiens, UniProt Q13233)
Method: as §1

[3] = target: 140 purified human kinases (Homo sapiens, UniProt P27448)
Chain of 140 purified human kinases (Homo sapiens, UniProt P27448) (P27448 whole entry): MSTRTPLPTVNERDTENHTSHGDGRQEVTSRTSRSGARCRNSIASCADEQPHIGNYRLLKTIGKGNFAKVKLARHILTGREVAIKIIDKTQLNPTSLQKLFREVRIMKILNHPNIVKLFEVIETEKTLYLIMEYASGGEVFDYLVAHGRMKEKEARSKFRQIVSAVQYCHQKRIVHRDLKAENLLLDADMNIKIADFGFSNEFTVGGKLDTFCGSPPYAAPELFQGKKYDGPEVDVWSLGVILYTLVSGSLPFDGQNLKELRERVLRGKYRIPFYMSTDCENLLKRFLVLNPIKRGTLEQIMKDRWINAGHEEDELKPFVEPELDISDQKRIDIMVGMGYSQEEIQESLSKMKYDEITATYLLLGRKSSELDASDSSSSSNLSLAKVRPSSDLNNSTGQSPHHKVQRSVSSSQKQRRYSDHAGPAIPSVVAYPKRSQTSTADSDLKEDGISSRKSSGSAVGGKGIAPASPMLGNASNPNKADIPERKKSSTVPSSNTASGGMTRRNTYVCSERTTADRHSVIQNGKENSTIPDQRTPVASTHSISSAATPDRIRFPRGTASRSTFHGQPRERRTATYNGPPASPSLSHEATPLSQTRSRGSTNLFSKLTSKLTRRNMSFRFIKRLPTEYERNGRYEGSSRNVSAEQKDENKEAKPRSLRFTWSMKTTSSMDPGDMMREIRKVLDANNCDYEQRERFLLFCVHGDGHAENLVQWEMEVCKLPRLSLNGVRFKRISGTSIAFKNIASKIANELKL
Method: as §1

[4] = target: 140 purified human kinases (Homo sapiens, UniProt P78368)
Chain of 140 purified human kinases (Homo sapiens, UniProt P78368) (P78368 whole entry): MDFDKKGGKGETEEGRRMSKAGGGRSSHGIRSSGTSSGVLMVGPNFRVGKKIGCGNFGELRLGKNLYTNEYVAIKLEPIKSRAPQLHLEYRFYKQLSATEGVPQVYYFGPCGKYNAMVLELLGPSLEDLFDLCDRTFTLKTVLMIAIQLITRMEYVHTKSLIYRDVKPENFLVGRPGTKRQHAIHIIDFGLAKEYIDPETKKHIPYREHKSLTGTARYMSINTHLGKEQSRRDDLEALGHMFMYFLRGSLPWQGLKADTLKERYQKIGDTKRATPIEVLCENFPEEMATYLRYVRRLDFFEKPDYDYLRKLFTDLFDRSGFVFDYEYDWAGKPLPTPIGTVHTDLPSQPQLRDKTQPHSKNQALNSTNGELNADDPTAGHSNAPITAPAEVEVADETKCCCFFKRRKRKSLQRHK
Method: as §1

[5] = target: 140 purified human kinases (Homo sapiens, UniProt P53350)
Chain of 140 purified human kinases (Homo sapiens, UniProt P53350) (P53350 whole entry): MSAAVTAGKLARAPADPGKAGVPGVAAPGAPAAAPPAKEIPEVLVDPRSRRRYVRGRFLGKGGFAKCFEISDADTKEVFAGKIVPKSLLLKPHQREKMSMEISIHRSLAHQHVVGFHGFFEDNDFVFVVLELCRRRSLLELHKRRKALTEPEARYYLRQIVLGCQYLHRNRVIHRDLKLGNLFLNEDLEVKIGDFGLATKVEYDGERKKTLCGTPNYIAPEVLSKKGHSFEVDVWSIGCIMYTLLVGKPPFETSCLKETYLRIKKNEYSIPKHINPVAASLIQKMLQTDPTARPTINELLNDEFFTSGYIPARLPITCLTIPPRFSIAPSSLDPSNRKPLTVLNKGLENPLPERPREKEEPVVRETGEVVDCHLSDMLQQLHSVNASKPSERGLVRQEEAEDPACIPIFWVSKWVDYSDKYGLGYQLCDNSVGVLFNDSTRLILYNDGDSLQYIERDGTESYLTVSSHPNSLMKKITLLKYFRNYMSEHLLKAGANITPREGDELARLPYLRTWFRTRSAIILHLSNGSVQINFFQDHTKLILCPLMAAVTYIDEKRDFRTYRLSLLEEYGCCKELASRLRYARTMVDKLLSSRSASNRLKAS
Method: as §1

[6] = target: 140 purified human kinases (Homo sapiens, UniProt Q86V86)
Method: as §1

[7] = target: 140 purified human kinases (Homo sapiens, UniProt Q5TCY1)
Method: as §1

[8] = target: 140 purified human kinases (Homo sapiens, UniProt Q9BUB5)
Chain of 140 purified human kinases (Homo sapiens, UniProt Q9BUB5) (Q9BUB5 whole entry): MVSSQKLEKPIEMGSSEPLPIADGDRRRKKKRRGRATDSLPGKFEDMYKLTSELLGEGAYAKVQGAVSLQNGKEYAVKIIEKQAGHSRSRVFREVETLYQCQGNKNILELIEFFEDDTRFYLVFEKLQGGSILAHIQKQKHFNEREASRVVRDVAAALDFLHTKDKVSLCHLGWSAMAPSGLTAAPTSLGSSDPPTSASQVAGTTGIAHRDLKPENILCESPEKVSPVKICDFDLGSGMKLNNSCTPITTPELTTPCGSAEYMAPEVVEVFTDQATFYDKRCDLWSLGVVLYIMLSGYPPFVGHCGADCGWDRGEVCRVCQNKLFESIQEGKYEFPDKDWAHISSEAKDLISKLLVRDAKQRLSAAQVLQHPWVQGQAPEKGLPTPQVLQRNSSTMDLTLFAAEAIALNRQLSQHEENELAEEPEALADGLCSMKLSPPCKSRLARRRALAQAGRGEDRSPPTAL
Method: as §1

[9] = target: 140 purified human kinases (Homo sapiens, UniProt Q06187); settings: BTK
Chain of 140 purified human kinases (Homo sapiens, UniProt Q06187) (Q06187 whole entry): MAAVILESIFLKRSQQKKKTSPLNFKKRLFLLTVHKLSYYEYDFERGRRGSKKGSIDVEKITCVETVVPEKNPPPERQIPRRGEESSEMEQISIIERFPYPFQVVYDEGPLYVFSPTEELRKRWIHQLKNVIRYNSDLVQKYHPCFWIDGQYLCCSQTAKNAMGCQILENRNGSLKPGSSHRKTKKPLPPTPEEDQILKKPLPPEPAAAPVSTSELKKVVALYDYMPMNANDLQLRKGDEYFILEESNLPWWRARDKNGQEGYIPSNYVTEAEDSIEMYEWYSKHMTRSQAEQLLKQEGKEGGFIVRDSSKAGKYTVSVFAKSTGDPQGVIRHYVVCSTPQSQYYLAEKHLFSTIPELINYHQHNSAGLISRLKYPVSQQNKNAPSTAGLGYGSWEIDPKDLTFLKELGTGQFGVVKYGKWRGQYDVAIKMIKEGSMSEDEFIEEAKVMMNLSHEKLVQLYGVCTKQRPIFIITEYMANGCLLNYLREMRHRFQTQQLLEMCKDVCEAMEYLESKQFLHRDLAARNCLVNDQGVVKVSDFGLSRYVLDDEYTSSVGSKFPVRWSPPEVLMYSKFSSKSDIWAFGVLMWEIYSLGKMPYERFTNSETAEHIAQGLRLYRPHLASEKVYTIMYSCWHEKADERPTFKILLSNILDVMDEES
Method: as §1

[10] = target: 140 purified human kinases (Homo sapiens, UniProt P50750)
Chain of 140 purified human kinases (Homo sapiens, UniProt P50750) (P50750 whole entry): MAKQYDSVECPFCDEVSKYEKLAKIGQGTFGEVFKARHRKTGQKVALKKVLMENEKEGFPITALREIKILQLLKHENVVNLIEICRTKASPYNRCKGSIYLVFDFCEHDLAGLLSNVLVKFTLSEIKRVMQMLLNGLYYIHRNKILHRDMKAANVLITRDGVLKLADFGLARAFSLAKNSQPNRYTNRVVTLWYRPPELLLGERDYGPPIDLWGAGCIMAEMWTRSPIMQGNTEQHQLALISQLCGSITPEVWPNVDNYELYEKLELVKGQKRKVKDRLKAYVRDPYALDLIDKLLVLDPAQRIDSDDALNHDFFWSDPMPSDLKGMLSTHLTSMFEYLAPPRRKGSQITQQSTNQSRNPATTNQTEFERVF
Method: as §1

[11] = target: 140 purified human kinases (Homo sapiens, UniProt P48730); settings: CK1δ
Chain of 140 purified human kinases (Homo sapiens, UniProt P48730) (P48730 whole entry): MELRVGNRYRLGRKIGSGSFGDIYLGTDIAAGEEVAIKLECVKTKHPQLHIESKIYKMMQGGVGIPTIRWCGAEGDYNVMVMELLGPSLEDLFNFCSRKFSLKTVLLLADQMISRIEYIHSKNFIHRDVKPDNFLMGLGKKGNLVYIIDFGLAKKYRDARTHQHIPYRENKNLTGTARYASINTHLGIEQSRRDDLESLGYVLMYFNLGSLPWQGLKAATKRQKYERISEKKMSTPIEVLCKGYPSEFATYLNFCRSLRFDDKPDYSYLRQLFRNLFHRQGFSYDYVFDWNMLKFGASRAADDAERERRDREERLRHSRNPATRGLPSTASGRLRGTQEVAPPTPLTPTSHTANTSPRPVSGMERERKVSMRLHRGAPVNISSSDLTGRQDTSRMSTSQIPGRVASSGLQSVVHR
Method: as §1

[12] = target: 140 purified human kinases (Homo sapiens, UniProt Q9P1W9)
Chain of 140 purified human kinases (Homo sapiens, UniProt Q9P1W9) (Q9P1W9 whole entry): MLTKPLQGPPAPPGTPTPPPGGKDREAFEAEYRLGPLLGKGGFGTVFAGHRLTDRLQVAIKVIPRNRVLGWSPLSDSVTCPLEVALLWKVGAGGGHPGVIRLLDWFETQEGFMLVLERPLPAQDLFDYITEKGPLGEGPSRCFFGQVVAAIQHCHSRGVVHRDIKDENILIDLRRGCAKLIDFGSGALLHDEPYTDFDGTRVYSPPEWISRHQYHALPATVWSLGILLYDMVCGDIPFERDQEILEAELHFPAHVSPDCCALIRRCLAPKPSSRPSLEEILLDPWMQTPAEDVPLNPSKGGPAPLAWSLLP
Method: as §1

[13] = target: 140 purified human kinases (Homo sapiens, UniProt P17612); settings: PKA
Method: as §1

[14] = target: T1, 140 purified human kinases (Homo sapiens, UniProt P52564)
T1 sequence (P52564 1-334): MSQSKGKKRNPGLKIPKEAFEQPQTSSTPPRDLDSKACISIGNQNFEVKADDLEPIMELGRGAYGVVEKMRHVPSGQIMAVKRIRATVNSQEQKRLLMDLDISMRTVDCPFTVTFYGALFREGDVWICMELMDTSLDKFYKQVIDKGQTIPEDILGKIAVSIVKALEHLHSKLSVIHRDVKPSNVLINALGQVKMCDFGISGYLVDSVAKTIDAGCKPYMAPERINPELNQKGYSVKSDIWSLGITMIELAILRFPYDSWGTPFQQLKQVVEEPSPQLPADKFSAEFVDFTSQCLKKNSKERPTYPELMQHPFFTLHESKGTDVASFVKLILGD
Method: as §1

[15] = target: 140 purified human kinases (Homo sapiens, UniProt Q13627); settings: DYRK1A
Method: as §1

Chain of 140 purified human kinases (Homo sapiens, UniProt Q96GD4) (Q96GD4 whole entry): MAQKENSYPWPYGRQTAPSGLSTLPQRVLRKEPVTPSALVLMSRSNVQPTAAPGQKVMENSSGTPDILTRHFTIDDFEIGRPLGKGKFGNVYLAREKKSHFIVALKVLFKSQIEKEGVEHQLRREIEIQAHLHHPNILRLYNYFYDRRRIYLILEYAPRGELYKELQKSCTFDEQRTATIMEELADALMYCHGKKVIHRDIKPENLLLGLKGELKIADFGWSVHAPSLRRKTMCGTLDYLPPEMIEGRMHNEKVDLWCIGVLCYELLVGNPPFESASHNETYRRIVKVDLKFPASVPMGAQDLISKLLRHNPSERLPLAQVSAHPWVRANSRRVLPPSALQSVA

[Cu+2].[Cu+2].[Cu+2].c1ccc(-c2csc(NCCN(CCNc3nc(-c4ccccn4)cs3)CCNc3nc(-c4ccccn4)cs3)n2)nc1.c1ccc(-c2csc(NCCN(CCNc3nc(-c4ccccn4)cs3)CCNc3nc(-c4ccccn4)cs3)n2)nc1 [[L2Cu3]6+]
% Inhibition Run 1 [1]: 92.4%
% Inhibition Run 2 [1]: 91.3%
% Inhibition, Mean [1]: 92%
mean % activity [1]: 8%
% activity ([1]; Run 1): 7.6%
% activity ([1]; Run 2): 8.7%
% Activity inhibition Mean ([1]; 10 µM): 91.9%
% Activity inhibition Run 1 ([1]; 10 µM): 92.4%
% Activity inhibition Run 2 ([1]; 10 µM): 91.3%
% Activity remaining Run 1 ([1]; 10 µM): 7.60%
% Activity remaining Run 2 ([1]; 10 µM): 8.70%
% Inhibition Run 1 ([2]; MEKK1): 48.4%
% Inhibition Run 2 ([2]; MEKK1): 57.6%
% Inhibition, Mean ([2]; MEKK1): 53%
mean % activity ([2]; MEKK1): 47%
% activity ([2]; MEKK1, Run 1): 51.6%
% activity ([2]; MEKK1, Run 2): 42.4%
% Inhibition Run 1 ([3]; MARK3): 28.5%
% Inhibition Run 2 ([3]; MARK3): 28.2%
% Inhibition, Mean ([3]; MARK3): 28%
mean % activity ([3]; MARK3): 72%
% activity ([3]; MARK3, Run 1): 71.5%
% activity ([3]; MARK3, Run 2): 71.8%
% Inhibition Run 1 ([4]; CK1γ2): 23.7%
% Inhibition Run 2 ([4]; CK1γ2): 10.8%
% Inhibition, Mean ([4]; CK1γ2): 17%
mean % activity ([4]; CK1γ2): 83%
% activity ([4]; CK1γ2, Run 1): 76.3%
% activity ([4]; CK1γ2, Run 2): 89.2%
% Activation, Mean value ([5]; PLK1): 12%
% Inhibition Run 1 ([5]; PLK1): -4.1%
% Inhibition Run 2 ([5]; PLK1): -19.1%
% Inhibition, Mean ([5]; PLK1): -12%
mean % activity ([5]; PLK1): 112%
% activity ([5]; PLK1, Run 1): 104.1%
% activity ([5]; PLK1, Run 2): 119.1%
% Activity Run 1 ([5]; PLK1, 10 µM): 104.10%
% Activity Run 2 ([5]; PLK1, 10 µM): 119.10%
% Inhibition Run 1 ([6]; PIM3): 54.7%
% Inhibition Run 2 ([6]; PIM3): 54.9%
% Inhibition, Mean ([6]; PIM3): 55%
mean % activity ([6]; PIM3): 45%
% activity ([6]; PIM3, Run 1): 45.3%
% activity ([6]; PIM3, Run 2): 45.1%
% Activation, Mean value ([7]; TTBK1): 9%
% Inhibition Run 1 ([7]; TTBK1): 10%
% Inhibition Run 2 ([7]; TTBK1): -27.8%
% Inhibition, Mean ([7]; TTBK1): -9%
mean % activity ([7]; TTBK1): 109%
% activity ([7]; TTBK1, Run 1): 90%
% activity ([7]; TTBK1, Run 2): 127.8%
% Inhibition Run 1 ([8]; MNK1): 85.8%
% Inhibition Run 2 ([8]; MNK1): 80.4%
% Inhibition, Mean ([8]; MNK1): 83%
mean % activity ([8]; MNK1): 17%
% activity ([8]; MNK1, Run 1): 14.2%
% activity ([8]; MNK1, Run 2): 19.6%
% Inhibition Run 1 [9]: 88.8%
% Inhibition Run 2 [9]: 82.3%
% Inhibition, Mean [9]: 86%
mean % activity [9]: 14%
% activity ([9]; Run 1): 11.2%
% activity ([9]; Run 2): 17.7%
% Activation, Mean value ([10]; CDK9-Cyclin T1): 18%
% Inhibition Run 1 ([10]; CDK9-Cyclin T1): -1.8%
% Inhibition Run 2 ([10]; CDK9-Cyclin T1): -34.5%
% Inhibition, Mean ([10]; CDK9-Cyclin T1): -18%
mean % activity ([10]; CDK9-Cyclin T1): 118%
% activity ([10]; CDK9-Cyclin T1, Run 1): 101.8%
% activity ([10]; CDK9-Cyclin T1, Run 2): 134.5%
% Activity Run 1 ([10]; CDK9-Cyclin T1, 10 µM): 101.80%
% Activity Run 2 ([10]; CDK9-Cyclin T1, 10 µM): 134.50%
% Activation, Mean value [11]: 12%
% Inhibition Run 1 [11]: -26.4%
% Inhibition Run 2 [11]: 2.3%
% Inhibition, Mean [11]: -12%
mean % activity [11]: 112%
% activity ([11]; Run 1): 126.4%
% activity ([11]; Run 2): 97.7%
% Activity Run 1 ([11]; 10 µM): 126.40%
% Activity Run 2 ([11]; 10 µM): 97.70%
% Inhibition Run 1 ([12]; PIM2): -3.6%
% Inhibition Run 2 ([12]; PIM2): 7%
% Inhibition, Mean ([12]; PIM2): 1.7%
mean % activity ([12]; PIM2): 98%
% activity ([12]; PIM2, Run 1): 103.6%
% activity ([12]; PIM2, Run 2): 93%
% Inhibition Run 1 [13]: 46.4%
% Inhibition Run 2 [13]: 48.2%
% Inhibition, Mean [13]: 47%
mean % activity [13]: 53%
% activity ([13]; Run 1): 53.6%
% activity ([13]; Run 2): 51.8%
% Inhibition Run 1 ([14]; MKK6): 75.4%
% Inhibition Run 2 ([14]; MKK6): 83.7%
% Inhibition, Mean ([14]; MKK6): 80%
mean % activity ([14]; MKK6): 20%
% activity ([14]; MKK6, Run 1): 24.6%
% activity ([14]; MKK6, Run 2): 16.3%
% Inhibition Run 1 [15]: 18.5%
% Inhibition Run 2 [15]: 12.4%
% Inhibition, Mean [15]: 15%
mean % activity [15]: 85%
% activity ([15]; Run 1): 81.5%
% activity ([15]; Run 2): 87.6%
